Read-outs that look alike come from different tables or passages of the source.
Legend:
[1] = biological target: T1, seeded conformational tau (MC1) (Homo sapiens, UniProt P10636, P618L); assay: Tg2508 ex-vivo tau seeding assay in ChoK1-Tau P301L cells (MC1 high content imaging); type: cell-based, mice; conditions: 24 hours, MC1 spot intensity in ChoK1-Tau P301L cells
T1 construct: tissue Taconic; host or cells: cortex / hippocampus of Tg2508 transgenic mice, sarkosyl-insoluble fraction or brain extract
T1 sequence (P10636 1-383 isoform P10636-6 P243L): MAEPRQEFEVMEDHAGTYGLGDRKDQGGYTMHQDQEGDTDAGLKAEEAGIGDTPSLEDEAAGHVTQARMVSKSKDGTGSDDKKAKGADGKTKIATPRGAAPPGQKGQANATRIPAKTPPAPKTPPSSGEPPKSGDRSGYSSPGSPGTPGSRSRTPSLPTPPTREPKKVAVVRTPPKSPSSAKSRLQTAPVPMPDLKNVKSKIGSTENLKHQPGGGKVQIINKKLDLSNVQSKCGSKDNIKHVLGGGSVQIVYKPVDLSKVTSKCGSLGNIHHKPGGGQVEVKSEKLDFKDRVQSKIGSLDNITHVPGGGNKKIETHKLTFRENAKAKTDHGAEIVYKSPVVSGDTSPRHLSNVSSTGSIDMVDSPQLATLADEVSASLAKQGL
Procedure: FIGS. 4A, 4B, and 4C. Briefly, ChoK1-Tau P301L cells were treated with K18 tau preformed fibrils (PFFs) or extracts from Tg2508 brain samples (as described in Materials and Methods; PFF generation modified from Holmes et al. PNAS. 2014. Proteopathic tau seeding predicts tauopathy in vivo. Oct. 111 (41) E4376-85). Seeded conformational tau species are detected by MC1 antibody positivity and quantified as MC1 spot average intensity per cell on the Image Express™ high content platform.
In vitro tau Seeding Assay for FIGS. 4A, 4B, and 4C. Tau P301L T-Rex CHO Cells were plated on BioCoat Collagen 96 well microplates that were also poly-D-lysine coated. Media was removed, cells were washed with DPBS, trypsinized and plated at 50,000 cells per mL with Doxycycline […] and no doxycycline control for 24 hours. […]

[2] = tested on: seeding competent tau species (MC1-positive seeded conformational tau) in ChoK1-Tau P301L cells; assay: Tg2508 ex-vivo seeding of P301L CHO cells, MC1 high content image analysis; type: cell-based, Tg2508 mice; conditions: 24 hours
Procedure: FIGS. 4A, 4B, and 4C. […] Briefly, ChoK1-Tau P301L cells were treated with K18 tau preformed fibrils (PFFs) or extracts from Tg2508 brain samples. Seeded conformational tau species were detected by MC1 antibody positivity and quantified as MC1 spot average intensity per cell on the Image Express high content platform.

Tau P301L = biological target: T2, Tau P301L (Homo sapiens, UniProt P10636, P618L); assay: In vitro tau degradation assay in CHOK1 Tau P301L cells (sarkosyl insoluble tau, WES); type: cell-based; conditions: for remaining activity at 1 µM: CHO-K1, relative to DMSO doxycycline control, read-out: Tau Protein Degradation effect at 1 μM
T2 construct: expressed in transfected cells
T2 sequence (P10636 1-441 isoform P10636-8 P301L): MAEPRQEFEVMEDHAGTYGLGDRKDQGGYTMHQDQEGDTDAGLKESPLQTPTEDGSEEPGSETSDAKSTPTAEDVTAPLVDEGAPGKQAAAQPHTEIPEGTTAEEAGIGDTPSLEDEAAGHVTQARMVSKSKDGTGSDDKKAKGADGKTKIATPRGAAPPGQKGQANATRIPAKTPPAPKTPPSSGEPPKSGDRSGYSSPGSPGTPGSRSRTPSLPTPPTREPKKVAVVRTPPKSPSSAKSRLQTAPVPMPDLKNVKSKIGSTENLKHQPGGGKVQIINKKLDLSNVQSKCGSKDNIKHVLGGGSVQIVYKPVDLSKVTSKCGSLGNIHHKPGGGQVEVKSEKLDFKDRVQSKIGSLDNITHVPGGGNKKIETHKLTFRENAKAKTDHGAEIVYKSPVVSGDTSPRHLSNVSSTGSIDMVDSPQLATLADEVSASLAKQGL
Procedure, shortened: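 T-Rex CHOK1 clone D1 with doxycycline-inducible (1 μg/ml) Tau P301L treated 48 h with compound at 1 μM, doxycycline removed for the final 24 h. Sarkosyl-insoluble tau quantified by WES capillary electrophoresis with Tau1 antibody, expressed relative to DMSO doxycycline control and binned as ≤50% or >50% remaining.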

P301L tau = biological target: T3, P301L tau (Homo sapiens, UniProt P10636, P618L); assay: Tau degradation in doxycycline-induced ChoK1-Tau P301L clone D1 cells; type: cell-based
T3 construct: expressed in transfected cells
T3 sequence (P10636 1-441 isoform P10636-8 P301L): as above
Procedure: FIGS. 2A, 2B, and 2C. Tau targeting bifunctional molecules are potent P301L tau degraders in vitro, which depends upon both binding to the tau binding moiety and the E3 ligase binding moiety (ULM). (2A) Tau expression was induced by addition (+) of doxycycline (1 μg/ml) to ChoK1-Tau P301L clone D1 for 24 hours followed by a 24 hour doxycycline washout period where only bifunctional molecule was present.

pathologic tau [3] = biological target: T4, pathologic tau (Homo sapiens, UniProt P10636, P618L); assay: In vivo tau degradation assay in Tg2508 tauopathy mice (sarkosyl insoluble tau, Wes); conditions: Tg2508 mice, 15, 3, 1 or 0.3 mpk parenterally, 24 hours post dose
T4 construct: tissue Taconic; host or cells: cortex / hippocampus of Tg2508 transgenic mice, sarkosyl-insoluble fraction or brain extract
T4 sequence (P10636 1-383 isoform P10636-6 P243L): as the sequence (P10636 1-383 isoform P10636-6 P243L) above
Procedure: (§1) FIGS. 3A and 3B. Tg2508 tauopathy mice were dosed (12 animals per group) with either 15 mpk exemplary compound 82 or 30 mpk exemplary compound 382 or vehicle parenterally, as described below (Lewis et al., 2000). Twenty-four hours post dose, the animals were sacrificed and cortical brain samples were analyzed for pathologic tau by Wes capillary gel electrophoresis. FIG. 3A is a graphical representation of the averaged analysis of pathologic tau shown for each animal tested comparing lanes from the vehicle control to either exemplary compound 82 or exemplary compound 382 as indicated in FIG. 3B. Greater than 95% reduction of pathologic tau was observed following treatment of the Tg2508 animals with either exemplary compound 82 or exemplary compound 382.
FIG. 5. Tg2508 animals were dosed with either 15, 3, 1 or 0.3 mpk of bifunctional compound exemplary compound 382 parenterally, as described in materials and methods. Hippocampal extracts were analyzed for either pathologic tau levels by Wes or bifunctional compound levels at each given dose as shown.
In vivo tau Degradation Assay for FIGS. 3A, 3B and 5. […] Hetero-bifunctional degrader molecule concentrations were determined using standand liquid chromatography and mass spectroscopy methodologies (Drumetix).

pathologic tau [4] = biological target: T4, pathologic tau; assay: Pathologic tau in Tg2508 brain after intravenous dosing, measured by Wes capillary gel electrophoresis; type: in vivo, Tg2508 tauopathy mice; conditions: 15, 3, 1 or 0.3 mpk intravenous, 24 hours post dose, Tg2508 hippocampi
Procedure: as §1, with “and 3B. Exemplary bifunctional compounds degrade greater than 95% of pathologic tau in Tg2508 brain following parenteral administration in vivo. Tg2508 tauopathy” for “and 3B. Tg2508 tauopathy”, “or vehicle intravenously. Twenty-four hours” for “or vehicle parenterally, as described below (Lewis et al., 2000). Twenty-four hours”, “animals were sacrificed, and cortical” for “animals were sacrificed and cortical”
FIG. 5. […] Tg2508 animals were dosed with either 15, 3, 1 or 0.3 mpk of bifunctional compound 382 intravenously, as described in materials and methods. Hippocampal extracts were analyzed for either pathologic tau levels by Wes or bifunctional compound levels at each given dose as shown.

[5] = single parenteral treatment 15 mpk
[6] = 10-fold molar excess pomalidomide
[7] = similar competition (10-fold molar excess) with flortaucipir
[8] = single parenteral treatment 30 mpk
[9] = remaining tau protein in sarkosyl insoluble pellet, CHOK1 Tau P301L cells treated 48 hours with test compound at 1 μM, doxycycline removed for the last 24 hours
[10] = CHOK1 Tau P301L cells, remaining tau in sarkosyl insoluble pellet, 48 hours with test compound at 1 μM, doxycycline removed for last 24 hours

## Cn1c2ccncc2c2ccc(-c3ccc(O[C@H]4C[C@H](OC5CCN(CCCCCOc6ccc7c(c6)C(=O)N(C6CCC(=O)NC6=O)C7=O)CC5)C4)nc3)cc21 (stereo partly drawn) [Compound 82]
[1]; [5]
  seeding competent tau species in Tg2508 cortical brain extracts: effectively degraded
[2]; [5]
  seeding competent tau species in Tg2508 cortical brain extracts (MC1 spot average intensity per cell): effectively degraded
Tau P301L; [6]
  tau degradation under competition with E3 ligase ligand: completely inhibited
Tau P301L; ChoK1-Tau P301L clone D1, doxycycline 1 μg/ml, 250, 125, 50 nM
  DC50: < 50 nM
Tau P301L; ChoK1-Tau P301L clone D1, 250 nM, 125 nM or 50 nM
  degradation of tau compared to 0.1% DMSO control: concentration-dependent degradation of tau
Tau P301L; [7]
  tau degradation under competition with tau warhead ligand: Partial inhibition
P301L tau; 250 nM, 125 nM or 50 nM, ChoK1-Tau P301L clone D1, vs 0.1% DMSO
  degradation of tau: concentration-dependent degradation of tau
P301L tau; [6]
  tau degradation under competition with E3 ligase ligand pomalidomide: completely inhibited
P301L tau; ChoK1-Tau P301L clone D1, 24 h doxycycline (1 μg/ml) induction, then 24 h washout with only compound present, vs 0.1% DMSO
  DC50: < 50 nM
P301L tau; [7]
  tau degradation under competition with tau warhead ligand flortaucipir: Partial inhibition

## Cn1c2ccncc2c2ccc(-c3ccc(N4CC(OC5CCN(CCCCCOc6ccc7c(c6)C(=O)N(C6CCC(=O)NC6=O)C7=O)CC5)C4)nc3)cc21 (stereo not drawn) [Compound 382, 2-(2,6-dioxopiperidin-3-yl)-5-((5-(4-((1-(5-(5-methyl-5H-pyrido[4,3-b]indol-7-yl)pyridin-2-yl)azetidin-3-yl)oxy)piperidin-1-yl)pentyl)oxy) isoindoline-1,3-dione]
[1]; [8]
  seeding competent tau species in Tg2508 cortical brain extracts: effectively degraded
[2]; [8]
  seeding competent tau species in Tg2508 cortical brain extracts (MC1 spot average intensity per cell): effectively degraded
Pathologic tau [3]
  concentration of tau protein in hippocampi: dose-dependently reduced
Pathologic tau [4]
  pathologic tau levels in hippocampal extracts: A clear dose-response relationship is demonstrated
Tau P301L; [9]
  remaining activity at 1 µM: < 50%

## O=C1CCC(N2C(=O)c3ccc(N4CCN(CCC5CCN(c6c(F)cc(-c7ccc8c9cnccc9n(C(F)F)c8n7)cc6F)CC5)CC4)cc3C2=O)C(=O)N1 (stereo not drawn) [Compound 676, 5-(4-(2-(1-(4-(9-(difluoromethyl)-9H-pyrrolo[2,3-b:4,5-c′]dipyridin-2-yl)-2,6-difluorophenyl)piperidin-4-yl)ethyl)piperazin-1-yl)-2-(2,6-dioxopiperidin-3-yl)isoindoline-1,3-dione]
Tau P301L; [9]
  remaining activity at 1 µM: < 50%

## CC(C)(CC1CCN(c2ncc(-c3ccc4c5cnccc5n(C(F)F)c4c3)cc2F)CC1)N1CCN(c2ccc3c(c2)C(=O)N(C2CCC(=O)NC2=O)C3=O)CC1 (stereo not drawn) [Compound 677, 5-(4-(1-(1-(5-(5-(difluoromethyl)-5H-pyrido[4,3-b]indol-7-yl)-3-fluoropyridin-2-yl)piperidin-4-yl)-2-methylpropan-2-yl)piperazin-1-yl)-2-(2,6-dioxopiperidin-3-yl)isoindoline-1,3-dione]
Tau P301L; [9]
  remaining activity at 1 µM: < 50%

## O=C1CCC(N2C(=O)c3ccc(N4CCN(CCC5CCN(c6ccc(-c7c(F)cc8c9cnccc9n(C(F)F)c8c7F)cn6)CC5)CC4)cc3C2=O)C(=O)N1 (stereo not drawn) [Compound 679, 5-(4-(2-(1-(5-(5-(difluoromethyl)-6,8-difluoro-5H-pyrido[4,3-b]indol-7-yl)pyridin-2-yl)piperidin-4-yl)ethyl)piperazin-1-yl)-2-(2,6-dioxopiperidin-3-yl)isoindoline-1,3-dione]
Tau P301L; [9]
  remaining activity at 1 µM: < 50%

## CN(C)c1ccn2cc(-c3cnc(N4CCC(CCN5CCN(c6ccc7c(c6)C(=O)N(C6CCC(=O)NC6=O)C7=O)CC5)CC4)c(F)c3)nc2c1 (stereo not drawn) [Compound 680, 5-(4-(2-(1-(5-(7-(dimethylamino)imidazo [1,2-a]pyridin-2-yl)-3-fluoropyridin-2-yl)piperidin-4-yl)ethyl)piperazin-1-yl)-2-(2,6-dioxopiperidin-3-yl)isoindoline-1,3-dione]
Tau P301L; [10]
  remaining activity at 1 µM: < 50%

## O=C1CCC(N2Cc3c(cccc3N3CCN(CCC4CCN(c5ncc(-c6ccc7c8cnccc8n(C(F)F)c7c6)cc5F)CC4)CC3)C2=O)C(=O)N1 (stereo not drawn) [Compound 682, 3-(4-(4-(2-(1-(5-(5-(difluoromethyl)-5H-pyrido[4,3-b]indol-7-yl)-3-fluoropyridin-2-yl)piperidin-4-yl)ethyl)piperazin-1-yl)-1-oxoisoindolin-2-yl)piperidine-2,6-dione]
Tau P301L; [10]
  remaining activity at 1 µM: < 50%

## O=C1CCC(N2C(=O)c3ccc(N4CCC(OC5CCN(C[C@H]6C[C@H](Oc7ncc(-c8ccc9c%10cnccc%10n(C(F)F)c9c8)cc7F)C6)CC5)CC4)cc3C2=O)C(=O)N1 (stereo partly drawn) [Compound N637]
Tau P301L; [10]
  remaining activity at 1 µM: < 50%

From patent US11912699B2, “Tau-protein targeting compounds and associated” (Arvinas Operations, Inc., priority 2019, dated 2024)
